Test results: ChEMBL document CHEMBL3046146, “Mutations in the mitochondrial cytochrome b of Tetranychus urticae Koch (Acari: Tetranychidae) confer cross-resistance between bifenazate and acequinocyl” (2009)
≈ marks a conversion by molar mass, not a printed value.

What was measured:
Format in all cases: functional
Tetranychus urticae [1] = assay: Resistance ratio of LC50 for bifenazate-resistant Tetranychus urticae (two-spotted spider mite) BEL1 harboring mitochondrial P262T Cytb fixed mutation to LC50 for Tetranychus urticae GSS
Tetranychus urticae [2] = assay: Toxicity against adult Tetranychus urticae BEL1 (two-spotted spider mite) in bean leaves assessed as mortality treated 24 hr after 2000 mg/L esterase inhibitor, DEF application; settings: BEL-1, 24 h
Tetranychus urticae [3] = assay: Toxicity against female adult Tetranychus urticae (two-spotted spider mite) F1 progeny generated from reciprocal cross between female BR-VL and male GSS in compound pretreated bean leaves assesed as mortality
Tetranychus urticae [4] = assay: Synergism ratio of LC50 for adult Tetranychus urticae BR-VL (two-spotted spider mite) to LC50 for adult Tetranychus urticae BR-VL in presence of 2000 mg/L cytochrome P450 monoxygenase inhibitor, PBO
Tetranychus urticae [5] = assay: Resistance ratio of LC50 for bifenazate-susceptible Tetranychus urticae LS-VL (two-spotted spider mite) to LC50 for Tetranychus urticae GSS
Tetranychus urticae [6] = assay: Toxicity against adult Tetranychus urticae GSS (two-spotted spider mite) in bean leaves assessed as mortality treated 24 hr after 2000 mg/L GST inhibitor, DEM application
Tetranychus urticae [7] = assay: Resistance ratio of LC50 for Tetranychus urticae HOL3 (two-spotted spider mite) harboring mitochondrial P262T Cytb heteroplasmic mutation to LC50 for Tetranychus urticae GSS
Tetranychus urticae [8] = assay: Toxicity against adult bifenazate-resistant Tetranychus urticae BEL1 (two-spotted spider mite) harboring mitochondrial P262T Cytb fixed mutation in compound pretreated bean leaves assessed as mortality; settings: BEL-1
Tetranychus urticae [9] = assay: Synergism ratio of LC50 for adult Tetranychus urticae BEL-1 (two-spotted spider mite) to LC50 for adult Tetranychus urticae BEL-1 in presence of 2000 mg/L GST inhibitor, DEM application
Tetranychus urticae [10] = assay: Toxicity against adult METI-resistant Tetranychus urticae MR-VP (two-spotted spider mite) in compound pretreated bean leaves assessed as mortality
Tetranychus urticae [11] = assay: Toxicity against adult Tetranychus urticae HOL2 (two-spotted spider mite) harboring mitochondrial G126S Cytb mutation in compound pretreated bean leaves assessed as mortality
Tetranychus urticae [12] = assay: Resistance ratio of LC50 for bifenazate-resistant Tetranychus urticae BR-VL (two-spotted spider mite) harboring mitochondrial G126S, S141F and D161G Cytb mutation to LC50 for Tetranychus urticae GSS
Tetranychus urticae [13] = assay: Synergism ratio of LC50 for adult Tetranychus urticae GSS (two-spotted spider mite) to LC50 for adult Tetranychus urticae GSS in presence of 1000 mg/L esterase inhibitor, DEF application
Tetranychus urticae [14] = assay: Toxicity against adult Tetranychus urticae GSS (two-spotted spider mite) in bean leaves assessed as mortality treated 24 hr after 1000 mg/L esterase inhibitor, DEF application
Tetranychus urticae [15] = assay: Toxicity against adult Tetranychus urticae WI (two-spotted spider mite) in compound pretreated bean leaves assessed as mortality
Tetranychus urticae [16] = assay: Resistance ratio of LC50 for METI-resistant Tetranychus urticae MR-VP (two-spotted spider mite) to LC50 for Tetranychus urticae GSS
Tetranychus urticae [17] = assay: Resistance ratio of LC50 for Tetranychus urticae HOL2 (two-spotted spider mite) harboring mitochondrial G126S Cytb mutation to LC50 for Tetranychus urticae GSS
Tetranychus urticae [18] = assay: Toxicity against adult bifenazate-susceptible Tetranychus urticae LS-VL (two-spotted spider mite) in compound pretreated bean leaves assessed as mortality
Tetranychus urticae [19] = assay: Synergism ratio of LC50 for adult Tetranychus urticae GSS (two-spotted spider mite) to LC50 for adult Tetranychus urticae GSS in presence of 2000 mg/L cytochrome P450 monoxygenase inhibitor, PBO
Tetranychus urticae [20] = assay: Resistance ratio of LC50 for Tetranychus urticae HOL1 (two-spotted spider mite) harboring mitochondrial G126S and I136T Cytb mutation to LC50 for Tetranychus urticae GSS
Tetranychus urticae [21] = assay: Toxicity against adult Tetranychus urticae BR-VL (two-spotted spider mite) in bean leaves assessed as mortality treated 24 hr after 2000 mg/L cytochrome P450 monoxygenase inhibitor, PBO application
Tetranychus urticae [22] = assay: Synergism ratio of LC50 for adult Tetranychus urticae GSS (two-spotted spider mite) to LC50 for adult Tetranychus urticae GSS in presence of 2000 mg/L GST inhibitor, DEM application
Tetranychus urticae [23] = assay: Toxicity against adult Tetranychus urticae BR-VL (two-spotted spider mite) in bean leaves assessed as mortality treated 24 hr after 2000 mg/L esterase inhibitor, DEF application
Tetranychus urticae [24] = assay: Toxicity against adult Tetranychus urticae BEL1 (two-spotted spider mite) in bean leaves assessed as mortality treated 24 hr after 2000 mg/L cytochrome P450 monoxygenase inhibitor, PBO application; settings: BEL-1, 24 h
Tetranychus urticae [25] = assay: Toxicity against adult Tetranychus urticae GSS (two-spotted spider mite) in compound pretreated bean leaves assessed as mortality
Tetranychus urticae [26] = assay: Resistance ratio of LC50 for Tetranychus urticae MR-VL (two-spotted spider mite) to LC50 for Tetranychus urticae GSS
Tetranychus urticae [27] = assay: Toxicity against adult Tetranychus urticae BEL1 (two-spotted spider mite) in bean leaves assessed as mortality treated 24 hr after 2000 mg/L GST inhibitor, DEM application; settings: BEL-1, 24 h
Tetranychus urticae [28] = assay: Resistance ratio of LC50 for Tetranychus urticae (two-spotted spider mite) HOL4 harboring mitochondrial G126S Cytb mutation to LC50 for Tetranychus urticae GSS
Tetranychus urticae [29] = assay: Toxicity against female adult Tetranychus urticae (two-spotted spider mite) F1 progeny generated from reciprocal cross between female BEL1 and male GSS in compound pretreated bean leaves assesed as mortality
Tetranychus urticae [30] = assay: Synergism ratio of LC50 for adult Tetranychus urticae BR-VL (two-spotted spider mite) to LC50 for adult Tetranychus urticae BR-VL in presence of 2000 mg/L esterase inhibitor, DEF application
Tetranychus urticae [31] = assay: Synergism ratio of LC50 for adult Tetranychus urticae BR-VL (two-spotted spider mite) to LC50 for adult Tetranychus urticae BR-VL in presence of 2000 mg/L GST inhibitor, DEM application
Tetranychus urticae [32] = assay: Toxicity against adult Tetranychus urticae GSS (two-spotted spider mite) in bean leaves assessed as mortality treated 24 hr after 2000 mg/L cytochrome P450 monoxygenase inhibitor, PBO application
Tetranychus urticae [33] = assay: Toxicity against adult bifenazate-resistant Tetranychus urticae BR-VL (two-spotted spider mite) harboring mitochondrial G126S, S141F and D161G Cytb mutation in compound pretreated bean leaves assessed as mortality
Tetranychus urticae [34] = assay: Resistance ratio of LC50 for Tetranychus urticae WI (two-spotted spider mite) to LC50 for Tetranychus urticae GSS
Tetranychus urticae [35] = assay: Toxicity against adult Tetranychus urticae BR-VL (two-spotted spider mite) in bean leaves assessed as mortality treated 24 hr after 2000 mg/L GST inhibitor, DEM application
Tetranychus urticae [36] = assay: Toxicity against female adult Tetranychus urticae (two-spotted spider mite) F1 progeny generated from reciprocal cross between female GSS and male BR-VL in compound pretreated bean leaves assesed as mortality
Tetranychus urticae [37] = assay: Toxicity against adult Tetranychus urticae MR-VL (two-spotted spider mite) in compound pretreated bean leaves assessed as mortality
Tetranychus urticae [38] = assay: Toxicity against adult Tetranychus urticae HOL1 (two-spotted spider mite) harboring mitochondrial G126S and I136T Cytb mutation in compound pretreated bean leaves assessed as mortality
Tetranychus urticae [39] = assay: Synergism ratio of LC50 for adult Tetranychus urticae BEL-1 (two-spotted spider mite) to LC50 for adult Tetranychus urticae BEL-1 in presence of 2000 mg/L esterase inhibitor, DEF application
Tetranychus urticae [40] = assay: Synergism ratio of LC50 for adult Tetranychus urticae BEL-1 (two-spotted spider mite) to LC50 for adult Tetranychus urticae BEL-1 in presence of 2000 mg/L cytochrome P450 monoxygenase inhibitor, PBO
Tetranychus urticae [41] = assay: Toxicity against female adult Tetranychus urticae (two-spotted spider mite) F1 progeny generated from reciprocal cross between female GSS and male BEL1 in compound pretreated bean leaves assesed as mortality
Tetranychus urticae [42] = assay: Toxicity against adult Tetranychus urticae HOL4 (two-spotted spider mite) harboring mitochondrial G126S Cytb mutation in compound pretreated bean leaves assessed as mortality
Tetranychus urticae [43] = assay: Toxicity against adult Tetranychus urticae HOL3 (two-spotted spider mite) harboring mitochondrial P262T Cytb heteroplasmic mutation in compound pretreated bean leaves assessed as mortality

Molecule `CCCCCCCCCCCCC1=C(OC(C)=O)C(=O)c2ccccc2C1=O` [ACEQUINOCYL] has a RatioLC50 (Tetranychus urticae [1]) of 48.5, an LC50 (Tetranychus urticae [2]) of 450 µg/mL (≈ 1170 µM) and an LC50 (Tetranychus urticae [3]) of 1200 µg/mL (≈ 3120 µM). It also gave a RatioLC50 (Tetranychus urticae [4]) of 5.6, a RatioLC50 (Tetranychus urticae [5]) of 0.9 and an LC50 (Tetranychus urticae [6]) of 8.3 µg/mL (≈ 21.6 µM). It also gave a RatioLC50 (Tetranychus urticae [7]) of 11.1, an LC50 (Tetranychus urticae [8]) of 548 µg/mL (≈ 1430 µM) and a RatioLC50 (Tetranychus urticae [9]) of 1.1. For the same molecule, the LC50 (Tetranychus urticae [10]) was 30.5 µg/mL (≈ 79.3 µM), the LC50 (Tetranychus urticae [11]) was 11.2 µg/mL (≈ 29.1 µM) and the RatioLC50 (Tetranychus urticae [12]) was 105. For the same molecule, the RatioLC50 (Tetranychus urticae [13]) was 1.1, the LC50 (Tetranychus urticae [14]) was 9.9 µg/mL (≈ 25.7 µM) and the LC50 (Tetranychus urticae [15]) was 26.5 µg/mL (≈ 68.9 µM). The RatioLC50 (Tetranychus urticae [16]) was 2.7, the RatioLC50 (Tetranychus urticae [17]) was 1 and the LC50 (Tetranychus urticae [18]) was 10.7 µg/mL (≈ 27.8 µM). The RatioLC50 (Tetranychus urticae [19]) was 2.26, the RatioLC50 (Tetranychus urticae [20]) was 0.8 and the LC50 (Tetranychus urticae [21]) was 209 µg/mL (≈ 544 µM). For the same molecule, the RatioLC50 (Tetranychus urticae [22]) was 1.4, the LC50 (Tetranychus urticae [23]) was 1060 µg/mL (≈ 2760 µM) and the LC50 (Tetranychus urticae [24]) was 79.4 µg/mL (≈ 206 µM). The LC50 (Tetranychus urticae [25]) was 11.3 µg/mL (≈ 29.4 µM), the RatioLC50 (Tetranychus urticae [26]) was 1.4 and the LC50 (Tetranychus urticae [27]) was 484 µg/mL (≈ 1260 µM). It also gave a RatioLC50 (Tetranychus urticae [28]) of 0.9, an LC50 (Tetranychus urticae [29]) of 535 µg/mL (≈ 1390 µM) and a RatioLC50 (Tetranychus urticae [30]) of 1.1. The RatioLC50 (Tetranychus urticae [31]) was 1.5, the LC50 (Tetranychus urticae [32]) was 5 µg/mL (≈ 13 µM) and the LC50 (Tetranychus urticae [33]) was 1180 µg/mL (≈ 3070 µM). The RatioLC50 (Tetranychus urticae [34]) was 2.3, the LC50 (Tetranychus urticae [35]) was 782 µg/mL (≈ 2030 µM) and the LC50 (Tetranychus urticae [36]) was 22.3 µg/mL (≈ 58 µM). The LC50 (Tetranychus urticae [37]) was 15.8 µg/mL (≈ 41.1 µM), the LC50 (Tetranychus urticae [38]) was 9.4 µg/mL (≈ 24.4 µM) and the RatioLC50 (Tetranychus urticae [39]) was 1.2. It also gave a RatioLC50 (Tetranychus urticae [40]) of 6.9, an LC50 (Tetranychus urticae [41]) of 26.2 µg/mL (≈ 68.1 µM) and an LC50 (Tetranychus urticae [42]) of 10.2 µg/mL (≈ 26.5 µM). The LC50 (Tetranychus urticae [43]) was 126 µg/mL (≈ 328 µM).
